# Calls of active or inactive are those of the source. The rule behind the calls is not given here.
# Columns and labels:
# Type in all cases: functional, organism-based
# Plasmodium falciparum [1] = test: Antimalarial activity against chloroquine-resistant Plasmodium falciparum W2 after 72 hr by […] assay; conditions: W2, 72 h
# Plasmodium falciparum [2] = test: Antimalarial activity against chloroquine-sensitive Plasmodium falciparum D6 after 72 hr by […] assay; conditions: D6, 72 h
# Leishmania donovani = test: Antileishmanial activity against promastigotes of Leishmania donovani expressing firefly luciferase after 72 hr by luciferase assay
# Staphylococcus aureus = test: Antimicrobial activity against methicillin-resistant Staphylococcus aureus
# Aspergillus fumigatus = test: Antimicrobial activity against Aspergillus fumigatus
# Escherichia coli = test: Antimicrobial activity against Escherichia coli
# [3] = tested on: Mycobacterium intracellulare; test: Antimicrobial activity against Mycobacterium intracellulare
# Candida albicans = test: Antimicrobial activity against Candida albicans
# Cryptococcus neoformans = test: Antimicrobial activity against Cryptococcus neoformans
compound,measurement,setting,value
CCOC(=O)Cc1ccc(Cc2cn(Cc3ccccc3)cn2)cc1,IC50,Plasmodium falciparum [1],6.3 µM
same,IC50,Plasmodium falciparum [2],8 µM
CCc1ccc(Cc2cc(N)cc(N)c2)cc1,IC50,Leishmania donovani,69 µM
same,IC90,Leishmania donovani,134 µM
C[C@@H]1[C@H](O)[C@@H](C)/C=C/C=C/C=C/C=C/C=C/C=C/C=C/[C@H](O[C@@H]2O[C@H](C)[C@@H](O)[C@H](N)[C@@H]2O)C[C@@H]2O[C@](O)(C[C@@H](O)C[C@@H](O)[C@H](O)CC[C@@H](O)C[C@@H](O)CC(=O)O[C@H]1C)C[C@H](O)[C@H]2C(=O)O [AMPHOTERICIN B],IC90,Leishmania donovani,2.5 µM
CCOC(=O)C(=O)Nc1cc(Cc2ccc(CC)cc2)cc(NC(=O)Cc2ccc(Cc3cn(Cc4ccccc4)cn3)cc2)c1,Activity,Staphylococcus aureus,inactive
same,Activity,Aspergillus fumigatus,inactive
same,IC50,Leishmania donovani,41 µM
same,Activity,Escherichia coli,inactive
same,Activity,[3],inactive
same,IC50,Plasmodium falciparum [1],5.5 µM
same,IC50,Plasmodium falciparum [2],6.5 µM
same,Activity,Candida albicans,inactive
same,Activity,Cryptococcus neoformans,inactive

# — ChEMBL document CHEMBL3046546, “Synthesis and biological evaluation of a novel anti-malarial lead” (Med Chem Res, 2011)
